Drawing on patent publication US20250236616A1, “IMMUNOMODULATING AZALIDES” (Zoetis Services LLC, priority 2021, published 2025), this text covers IC50 for 19 compounds.

One experiment concerns TNF-α. The experiment is described as follows: Whole bovine blood assay, LPS-induced TNF-α. The class given is cell-based. Particulars: fresh whole bovine blood, LPS stimulant, top drug concentration 250 μM. How it is done:
Whole Blood Assay-Fresh whole bovine blood samples were collected into heparinized vacutainer tubes. Assay plates were prepared with 25 μL of drug diluted in PBS at varying concentration in 96 round bottom wells, then 225 μL of blood was added and plates incubated at 37° C. for 4 hours. Cells were stimulated with LPS (or PBS for controls) by adding 25 μL to the plates at a final concentration of 1 μg/mL and incubated at 37° C. for 18 hours. To collect plasma, plates were centrifuged at 2,000×g for 10 minutes and 100 μL of supernatant was transferred to a 96 well polypropylene plate that was sealed and stored at −80° C. Samples were assayed for cytokines using the Meso Scale Discovery (MSD) platform (described below). This same MSD platform was used to assess cytokines in the plasma collected directly from drug treated animals.
Cytokine Detection—An MSD U-Plex cytokine assay was developed following the MSD U-Plex protocol guide and included biotinylated capture antibodies against: bovine Interleukin (IL)-1β (Biorad), bovine IL-6 (R&D Systems) and bovine tumor necrosis factor (TNF)-α (R&D Systems). […] Assay calibrators (Kingfisher) were diluted to a concentration of […] in control lithium heparin plasma, followed by 4-fold serial dilutions into plasma. […] Antibodies were used at the following concentrations: anti-IL-1β at 1 μg/mL, anti-IL-6 at 1 μg/mL and anti-TNF-α at 0.5 μg/mL. Cytokines were quantified according to manufacturer's instructions using a chemiluminescent readout. In brief, 0.5 mL of all biotinylated antibodies were diluted to 10 μg/mL with Diluent 100 and paired to their respective linkers by adding 750 μL of supplied Linker solution and incubated for 30 minutes followed by addition of Stop solution for another 30 minutes. The linked antibodies were then diluted 10-fold into Stop solution. Plates were coated by adding 50 μL of antibody solutions per well and incubated covered and shaking for 1 hour at room temperature. Plates were washed three times with PBS/Tween20 prior to samples or standards being added at 30 μL per well and incubated as above. Plates were washed three times before detection antibodies were added along with 2% goat and rabbit serum to block and incubated same as above. Plates were washed a further three times before addition of 150 μL 2X Read buffer and read immediately on the SI6000 instrument (MSD). For soluble protein levels, a BCA protein kit (Thermofisher) was used. The cytokine concentrations (pg/mL) were normalized to the total protein levels for each sample. [Bassel et. al., BMC Veterinary Research (2020) 16:168]
Therefore, a fresh whole bovine blood assay was developed with LPS as a stimulant (TLR-4 agonist) and with IL-1β and TNF-α as the read-out. Compounds of the invention were evaluated against a positive control for their ability to inhibit LPS-induced IL-1β and TNF-α as an overall evaluation of relative potency and modulation of target pathways.
TNFα is a cell signaling protein, cytokine, that plays a key role in both acute and chronic inflammation. In the bovine whole blood in vitro screening assay the inhibition of TNFα as induced by stimulation by lipopolysaccharide (LPS) and as measured by half the maximal inhibitory concentration (IC50) is recognized as the primary biomarker of immunomodulation potency upon pretreatment with the compounds of the invention. IL-1 B is a mediator of the inflammation response and is involved in a number of cellular activities including proliferation, differentiation and apoptosis. IL-1ß is also released upon cellular stress or cytotoxicity or upon TLR stimulation. […] In order to estimate a therapeutic index from the in vitro assay a differential between the TNFα IC50 (immunomodulation potency) versus the perceived cellular toxicity concentration (IL-1β release or overstimulation) was utilized.

Another experiment concerns IL-6. The experiment is described as follows: Whole bovine blood assay, LPS-induced IL-6. Particulars: fresh whole bovine blood, LPS stimulant, top drug concentration 250 μM. The class given is cell-based.

In general, IC50 refers to the concentration that inhibits the measured activity by half. A high value points to lower potency. With `CCCNC[C@]1(O)[C@H](C)O[C@@H](O[C@H]2[C@H](C)[C@@H](O[C@@H]3O[C@H](C)C[C@H](N(C)S(=O)(=O)c4ccc(Cl)cc4)[C@H]3O)[C@](C)(O)C[C@@H](C)CN(C)[C@H](C)[C@@H](O)[C@](C)(O)[C@@H](CC)OC(=O)[C@@H]2C)C[C@@]1(C)OC` [Example B-153], the figures for the IC50 with TNF-α and with IL-6 were 7 µM and 10 µM, respectively.
In turn, `CCCNC[C@]1(O)[C@H](C)O[C@@H](O[C@H]2[C@H](C)[C@@H](O[C@@H]3O[C@H](C)C[C@H](N(C)S(=O)(=O)c4nccn4C)[C@H]3Oc3ccc(F)cc3C)[C@](C)(O)C[C@@H](C)CN[C@H](C)[C@@H](O)[C@](C)(O)[C@@H](CC)OC(=O)[C@@H]2C)C[C@@]1(C)OC` [Example B-121] yielded an IC50 in the experiment on IL-6 of 5 µM.
Take `CCCNC[C@]1(O)[C@H](C)O[C@@H](O[C@H]2[C@H](C)[C@@H](O[C@@H]3O[C@H](C)C[C@H](N(CCC)S(=O)(=O)c4ccc(Cl)cc4)[C@H]3O)[C@](C)(O)C[C@@H](C)CN[C@H](C)[C@@H](O)[C@](C)(O)[C@@H](CC)OC(=O)[C@@H]2C)C[C@@]1(C)OC` [Example B-142]: the IC50 in the experiment on TNF-α (Bos taurus) came out at 8 µM; in the experiment with IL-6 (Bos taurus) it was 9 µM.
With `CC[C@H]1OC(=O)[C@H](C)[C@@H](O[C@H]2C[C@@](C)(OC)[C@](O)(CN3CCCCC3)[C@H](C)O2)[C@H](C)[C@@H](O[C@@H]2O[C@H](C)C[C@H](N(C)S(=O)(=O)Nc3ccc(C(F)(F)F)cc3)[C@H]2O)[C@](C)(O)C[C@@H](C)CN(CC)[C@H](C)[C@@H](O)[C@]1(C)O` [Example C-36], the figures for the IC50 with TNF-α and with IL-6 were 6 µM and 9 µM, respectively.
For the compound `CC[C@H]1OC(=O)[C@H](C)[C@@H](O[C@H]2C[C@@](C)(OC)[C@](O)(CNCc3cscn3)[C@H](C)O2)[C@H](C)[C@@H](O[C@@H]2O[C@H](C)C[C@H](N(C)S(=O)(=O)c3ccc(Cl)cc3)[C@H]2O)[C@](C)(O)C[C@@H](C)CN[C@H](C)[C@@H](O)[C@]1(C)O` [Example B-37], the figures for the IC50 in the experiment on TNF-α and with IL-6 were 8 µM and 13 µM, respectively.
In the same order, the values of `CC[C@H]1OC(=O)[C@H](C)[C@@H](O[C@H]2C[C@@](C)(OC)[C@](O)(CNCCC(C)C)[C@H](C)O2)[C@H](C)[C@@H](O[C@@H]2O[C@H](C)C[C@H](N(C)S(=O)(=O)c3ccc(Cl)cc3)[C@H]2O)[C@](C)(O)C[C@@H](C)CN[C@H](C)[C@@H](O)[C@]1(C)O` [Example B-21] are 5 µM and 6 µM.
In the same order, the values of `CC[C@H]1OC(=O)[C@H](C)[C@@H](O)[C@H](C)[C@@H](O[C@H]2O[C@@H](C)C[C@@H](N(C)S(=O)(=O)Nc3ccccc3)[C@@H]2Oc2ccc(F)cc2)[C@](C)(O)C[C@@H](C)CN[C@H](C)[C@@H](O)[C@]1(C)O` [Example A-37] are 19 µM and 46 µM.
As to `CC[C@H]1OC(=O)[C@H](C)[C@@H](O[C@H]2C[C@@](C)(OC)[C@](O)(CN3CCCCC3)[C@H](C)O2)[C@H](C)[C@@H](O[C@@H]2O[C@H](C)C[C@H](N(CC(C)C)S(=O)(=O)c3ccc(OC)cc3)[C@H]2O)[C@](C)(O)C[C@@H](C)CN[C@H](C)[C@@H](O)[C@]1(C)O` [Example C-43], half-maximal inhibition with IL-6 (IC50) was put at 4 µM.
As for `CC[C@H]1OC(=O)[C@H](C)[C@@H](O[C@H]2C[C@@](C)(OC)[C@](O)(CNCc3ccccc3)[C@H](C)O2)[C@H](C)[C@@H](O[C@@H]2O[C@H](C)C[C@H](N(C)S(=O)(=O)Nc3ccc(C(F)(F)F)cc3)[C@H]2O)[C@](C)(O)C[C@@H](C)CN[C@H](C)[C@@H](O)[C@]1(C)O` [Example B-90], the figures for the IC50 in the experiment with TNF-α and in the experiment with IL-6 were 8 µM and 26 µM, respectively.
For the compound `CC[C@H]1OC(=O)[C@H](C)[C@@H](O[C@H]2C[C@@](C)(OC)[C@](O)(CN3CCCCC3)[C@H](C)O2)[C@H](C)[C@@H](O[C@@H]2O[C@H](C)C[C@H](N(C)S(=O)(=O)c3ccc(S(F)(F)(F)(F)F)cc3)[C@H]2O)[C@](C)(O)C[C@@H](C)CN[C@H](C)[C@@H](O)[C@]1(C)O` [Example C-47], the IC50 with IL-6 came out at 4 µM.
As for `CCCNC[C@]1(O)[C@H](C)O[C@@H](O[C@H]2[C@H](C)[C@@H](O[C@@H]3O[C@H](C)C[C@H](N(C)S(=O)(=O)c4ccc(C)cc4)[C@H]3O)[C@](C)(O)C[C@@H](C)CN(CCC)[C@H](C)[C@@H](O)[C@](C)(O)[C@@H](CC)OC(=O)[C@@H]2C)C[C@@]1(C)OC` [Example B-154], the values for the IC50 in the experiment with TNF-α and with IL-6 were 7 µM and 15 µM, respectively.
Consider `CCCNC[C@]1(O)[C@H](C)O[C@@H](O[C@H]2[C@H](C)[C@@H](O[C@@H]3O[C@H](C)C[C@H](N(C)S(=O)(=O)N(C)c4ccc(F)cc4)[C@H]3O)[C@](C)(O)C[C@@H](C)CN[C@H](C)[C@@H](O)[C@](C)(O)[C@@H](CC)OC(=O)[C@@H]2C)C[C@@]1(C)OC` [Example B-61], for which the figures for the IC50 with TNF-α and in the experiment on IL-6 were 37 µM and 71 µM, respectively.
The corresponding values for `CCCNC[C@]1(O)[C@H](C)O[C@@H](O[C@H]2[C@H](C)[C@@H](O[C@@H]3O[C@H](C)C[C@H](N(C)S(=O)(=O)c4cnc5ccccn45)[C@H]3Oc3ccc(OC)cc3)[C@](C)(O)C[C@@H](C)CN[C@H](C)[C@@H](O)[C@](C)(O)[C@@H](CC)OC(=O)[C@@H]2C)C[C@@]1(C)OC` [Example B-118] are 45 µM and 10 µM.
The corresponding values for `CCCNC[C@]1(O)[C@H](C)O[C@@H](O[C@H]2[C@H](C)[C@@H](O[C@@H]3O[C@H](C)C[C@H](N(C)S(=O)(=O)c4ccc(Cl)cc4)[C@H]3O)[C@](C)(O)C[C@@H](C)CN(CCC)[C@H](C)[C@@H](O)[C@](C)(O)[C@@H](CC)OC(=O)[C@@H]2C)C[C@@]1(C)OC` [Example B-151] are 8 µM and 10 µM.
The compound `CC[C@H]1OC(=O)[C@H](C)[C@@H](O[C@H]2C[C@@](C)(OC)[C@](O)(CNCCS(=O)(=O)c3ccccc3)[C@H](C)O2)[C@H](C)[C@@H](O[C@@H]2O[C@H](C)C[C@H](N(C)S(=O)(=O)Nc3ccc(C(F)(F)F)cc3)[C@H]2O)[C@](C)(O)C[C@@H](C)CN[C@H](C)[C@@H](O)[C@]1(C)O` [Example B-128] returned an IC50 in the experiment with IL-6 of 23 µM.
The same measure, in the same setting: to `CC[C@H]1OC(=O)[C@H](C)[C@@H](O[C@H]2C[C@@](C)(OC)[C@](O)(CNC3CCCCC3)[C@H](C)O2)[C@H](C)[C@@H](O[C@@H]2O[C@H](C)C[C@H](N(C)S(=O)(=O)Nc3ccc(C(F)(F)F)cc3)[C@H]2O)[C@](C)(O)C[C@@H](C)CN[C@H](C)[C@@H](O)[C@]1(C)O` [Example B-69] belongs 16 µM.
Take `CC[C@H]1OC(=O)[C@H](C)[C@@H](O[C@H]2C[C@@](C)(OC)[C@](O)(CNc3ccccc3)[C@H](C)O2)[C@H](C)[C@@H](O[C@@H]2O[C@H](C)C[C@H](N(C)S(=O)(=O)Nc3ccc(C(F)(F)F)cc3)[C@H]2O)[C@](C)(O)C[C@@H](C)CN[C@H](C)[C@@H](O)[C@]1(C)O` [Example B-64]: in the experiment with TNF-α, the IC50 was determined as 8 µM.
The same measure, in the same setting: the value for `CC[C@H]1OC(=O)[C@H](C)[C@@H](O[C@H]2C[C@@](C)(OC)[C@](O)(CNCCC3CCOCC3)[C@H](C)O2)[C@H](C)[C@@H](O[C@@H]2O[C@H](C)C[C@H](N(C)S(=O)(=O)Nc3ccc(C(F)(F)F)cc3)[C@H]2O)[C@](C)(O)C[C@@H](C)CN[C@H](C)[C@@H](O)[C@]1(C)O` [Example B-66] was 30 µM; that for `CC[C@H]1OC(=O)[C@H](C)[C@@H](O[C@H]2C[C@@](C)(OC)[C@](O)(CNc3ccccc3)[C@H](C)O2)[C@H](C)[C@@H](O[C@@H]2O[C@H](C)C[C@H](N(C)S(=O)(=O)c3ccc(Cl)cc3)[C@H]2O)[C@](C)(O)C[C@@H](C)CN[C@H](C)[C@@H](O)[C@]1(C)O` [Example B-32] was 23 µM.
